Each structure is given as a SMILES string. pKi: −log10 of the molar value.

The target in the first experiment is T1, chimeric human H3 receptor (Homo sapiens, UniProt Q9Y5N1).
T1 construct: made in house; host or cells: Sf9 insect cells (baculovirus); P2 membrane preparation
T1 sequence (Q9Y5N1 with tags, fused parts or gaps): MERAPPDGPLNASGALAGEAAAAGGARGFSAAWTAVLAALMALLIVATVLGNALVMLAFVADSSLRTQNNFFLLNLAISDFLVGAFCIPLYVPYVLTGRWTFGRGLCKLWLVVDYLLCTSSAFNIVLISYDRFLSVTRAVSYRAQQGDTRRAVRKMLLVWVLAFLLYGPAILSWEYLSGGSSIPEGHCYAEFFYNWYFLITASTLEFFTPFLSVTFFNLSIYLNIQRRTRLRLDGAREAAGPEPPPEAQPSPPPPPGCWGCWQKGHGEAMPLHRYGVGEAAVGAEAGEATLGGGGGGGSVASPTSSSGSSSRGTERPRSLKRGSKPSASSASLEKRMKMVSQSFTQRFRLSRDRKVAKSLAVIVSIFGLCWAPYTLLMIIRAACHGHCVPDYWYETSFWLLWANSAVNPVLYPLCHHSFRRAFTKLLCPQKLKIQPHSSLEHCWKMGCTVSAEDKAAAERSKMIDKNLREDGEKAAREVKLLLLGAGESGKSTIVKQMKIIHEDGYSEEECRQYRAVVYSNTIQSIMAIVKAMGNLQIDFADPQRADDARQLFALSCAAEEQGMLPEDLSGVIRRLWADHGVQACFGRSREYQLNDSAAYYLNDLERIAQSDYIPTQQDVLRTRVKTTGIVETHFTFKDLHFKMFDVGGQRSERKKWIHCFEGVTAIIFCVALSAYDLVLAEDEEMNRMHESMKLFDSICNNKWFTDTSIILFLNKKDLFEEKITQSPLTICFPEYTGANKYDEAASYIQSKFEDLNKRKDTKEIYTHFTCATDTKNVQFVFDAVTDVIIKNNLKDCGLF
Nature of the experiment: Chimeric human H3 receptor GTP binding assay (agonist-stimulated GTP-gamma35S binding, Example 7). The format is biochemical. The settings on record: Table I; P2 membranes of Sf9 cells, 1 μM histamine as agonist, Ki from IC50 by Cheng-Prusoff. Put shortly: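 Sf9 membranes co-expressing chimeric human H3 receptor and heterotrimeric G-protein, 35 μg/tube, in pH 7.4 Tris buffer with 10 μM GDP. Test compounds (10^−10–10^−6 M) competed against 1 μM histamine, […] GTP-gamma35S, 60 min at room temperature. Filter-bound radioactivity counted; IC50 converted to Ki by Cheng-Prusoff. Agonism/inverse agonism tested without histamine (EC50).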
`CC(=O)c1ccc2c(c1)CCN(CC(=O)N1CCN(C3CCC3)CC1)C2c1ccccc1Cl` (centres unmarked) [Compound 64, 1-{1-(2-chlorophenyl)-2-[2-(4-cyclobutylpiperazin-1-yl)-2-oxoethyl]-1,2,3,4-tetrahydroisoquinolin-6-yl}ethanone]: the negative logarithm of the Ki (pKi) is over 6.00. Still for that read-out and setting: next, `CC(=O)c1ccc(-c2ncc3c(n2)CCN(CC(=O)N2CCN(C4CCC4)CC2)C3)cc1` [Compound 71, 1-(4-{6-[2-(4-cyclobutylpiperazin-1-yl)-2-oxoethyl]-5,6,7,8-tetrahydropyrido[4,3-d]pyrimidin-2-yl}phenyl)ethanone]: over 6.00. The same measure, in the same setting: next, `COc1cc2c(cc1OC)CN(CC(=O)N1CCN(C3CCCC3)CC1)CC2` [Compound 47, 2-[2-(4-cyclopentylpiperazin-1-yl)-2-oxoethyl]-6,7-dimethoxy-1,2,3,4-tetrahydroisoquinoline]: over 6.00. Still for that read-out and setting: next, `COc1ccc2c(c1)CCN(CC(=O)N1CCN(C3CCC3)CC1)CC2` [Compound 77, 3-[2-(4-cyclobutylpiperazin-1-yl)-2-oxoethyl]-7-methoxy-2,3,4,5-tetrahydro-1H-3-benzazepine]: over 6.00. With `O=C(CN1CCc2cncnc2CC1)N1CCN(C2CCC2)CC1` [Compound 80, 7-[2-(4-cyclobutylpiperazin-1-yl)-2-oxoethyl]-6,7,8,9-tetrahydro-5H-pyrimido[4,5-d]azepine], the pKi is over 6.00.

The experiment is the same for the next values; noted with them: Table II "Ki", symbol *; assay of Example 7.
Take `CC(C)C(C)Nc1ccc2c(n1)CCN(CC(=O)N1CCN(C3CCC3)CC1)C2` (centres unmarked) [Compound 661, 6-[2-(4-cyclobutylpiperazin-1-yl)-2-oxoethyl]-N-(1,2-dimethylpropyl)-5,6,7,8-tetrahydro-1,6-naphthyridin-2-amine]: the pKi was over 6.00.

As to `COc1cccc(-c2ccc3c(c2)CCN(CC(=O)N2CCN(C4CCC4)CC2)C3)n1` [Compound 633, 2-[2-(4-cyclobutylpiperazin-1-yl)-2-oxoethyl]-6-(6-methoxypyridin-2-yl)-1,2,3,4-tetrahydroisoquinoline], the pKi is over 6.00. `CCOc1cccc(-c2ccc3c(c2)CCN(CC(=O)N2CCN(C4CCC4)CC2)C3)c1` [Compound 482, 2-[2-(4-cyclobutylpiperazin-1-yl)-2-oxoethyl]-6-(3-ethoxyphenyl)-1,2,3,4-tetrahydroisoquinoline]: the pKi is over 6.00.

As for `CN(C)CCc1ccccc1-c1ccc2c(c1)CCN(CC(=O)N1CCN(C3CCC3)CC1)C2` [Compound 643, 2-(2-{2-[2-(4-cyclobutylpiperazin-1-yl)-2-oxoethyl]-1,2,3,4-tetrahydroisoquinolin-6-yl}phenyl)-N,N-dimethylethanamine], the pKi was over 6.00. Same read-out and setting: the result for `CCCOc1ccc(-c2ccc3c(c2)CCN(CC(=O)N2CCN(C4CCCC4)CC2)C3)cc1` [Compound 545, 2-[2-(4-cyclopentylpiperazin-1-yl)-2-oxoethyl]-6-(4-propoxyphenyl)-1,2,3,4-tetrahydroisoquinoline] reads over 6.00; that for `COc1ccc(-c2ccc3c(c2)CCN(CC(=O)N2CCN(C4CCC4)CC2)C3)cc1C` [Compound 540, 2-[2-(4-cyclobutylpiperazin-1-yl)-2-oxoethyl]-6-(4-methoxy-3-methylphenyl)-1,2,3,4-tetrahydroisoquinoline], over 6.00. Same read-out and setting: the result for `CC1CCCCC1N1CCN(C(=O)CN2CCc3cc(-c4cncnc4)ccc3C2)CC1` (centres unmarked) [Compound 619, 2-{2-[4-(2-methylcyclohexyl)piperazin-1-yl]-2-oxoethyl}-6-pyrimidin-5-yl-1,2,3,4-tetrahydroisoquinoline] reads over 6.00.

For `CCC(C)Nc1ccc2c(n1)CCN(CC(=O)N1CCN(C3CCC3)CC1)C2` (centres unmarked) [Compound 655, N-sec-butyl-6-[2-(4-cyclobutylpiperazin-1-yl)-2-oxoethyl]-5,6,7,8-tetrahydro-1,6-naphthyridin-2-amine], the negative logarithm of the Ki (pKi) was over 6.00.

The experiment is the same for the next values; noted with them: Table II; "*" = Ki in assay of Example 7 less than 1 micromolar.
As for `O=C(CN1CCc2c(cnn2-c2ccc(Cl)nn2)C1)N1CCN(C2CCC2)CC1` [Compound 214, 1-(6-chloropyridazin-3-yl)-5-[2-(4-cyclobutylpiperazin-1-yl)-2-oxoethyl]-4,5,6,7-tetrahydro-1H-pyrazolo[4,3-c]pyridine], the negative logarithm of the Ki (pKi) was over 6.00. Same read-out and setting: next, `O=C(CN1CCc2nc(N3CCCC3)ccc2C1)N1CCN(C2CCC2)CC1` [Compound 176, 6-[2-(4-cyclobutylpiperazin-1-yl)-2-oxoethyl]-2-pyrrolidin-1-yl-5,6,7,8-tetrahydro-1,6-naphthyridine]: over 6.00; `COCCN(C)c1ccc2c(n1)CCN(CC(=O)N1CCN(C3CCC3)CC1)C2` [Compound 184, 6-[2-(4-cyclobutylpiperazin-1-yl)-2-oxoethyl]-N-(2-methoxyethyl)-N-methyl-5,6,7,8-tetrahydro-1,6-naphthyridin-2-amine]: over 6.00. Still for that read-out and setting: next, `N#Cc1ccc(-n2ncc3c2CCN(CC(=O)N2CCN(C4CCC4)CC2)C3)cc1` [Compound 93, 4-{5-[2-(4-cyclobutylpiperazin-1-yl)-2-oxoethyl]-4,5,6,7-tetrahydro-1H-pyrazolo[4,3-c]pyridin-1-yl}benzonitrile]: over 6.00. `N#Cc1cncc(-n2cc3c(n2)CCN(CC(=O)N2CCN(C4CCC4)CC2)C3)n1` [Compound 271, 6-{5-[2-(4-cyclobutylpiperazin-1-yl)-2-oxoethyl]-4,5,6,7-tetrahydro-2H-pyrazolo[4,3-c]pyridin-2-yl}pyrazine-2-carbonitrile]: the pKi is over 6.00.

Regarding `CCN(C)c1ccc2c(n1)CCN(CC(=O)N1CCN(C3CCC3)CC1)C2` [Compound 245, 6-[2-(4-cyclobutylpiperazin-1-yl)-2-oxoethyl]-N-ethyl-N-methyl-5,6,7,8-tetrahydro-1,6-naphthyridin-2-amine], the pKi is over 6.00. On the same count and under the same terms, the result for `O=C(CN1CCc2nc(Br)sc2C1)N1CCN(C2CCC2)CC1` [Compound 97, 2-bromo-5-[2-(4-cyclobutylpiperazin-1-yl)-2-oxoethyl]-4,5,6,7-tetrahydro[1,3]thiazolo [5,4-c]pyridine] reads over 6.00. The same measure, in the same setting: next, `O=C(CN1CCc2nn(-c3cccnn3)cc2C1)N1CCN(C2CCC2)CC1` [Compound 255, 5-[2-(4-cyclobutylpiperazin-1-yl)-2-oxoethyl]-2-pyridazin-3-yl-4,5,6,7-tetrahydro-2H-pyrazolo[4,3-c]pyridine]: over 6.00; `CC1CN(c2ccc3c(n2)CCN(CC(=O)N2CCN(C4CCC4)CC2)C3)CC(C)O1` (centres unmarked) [Compound 182, 6-[2-(4-cyclobutylpiperazin-1-yl)-2-oxoethyl]-2-(2,6-dimethylmorpholin-4-yl)-5,6,7,8-tetrahydro-1,6-naphthyridine]: over 6.00. Same read-out and setting: next, `CC(C)N1CCN(C(=O)CN2CCc3[nH]c(=O)ccc3C2)CC1` [Compound 135, 6-[2-(4-isopropylpiperazin-1-yl)-2-oxoethyl]-5,6,7,8-tetrahydro-1,6-naphthyridin-2(1H)-one]: over 6.00.

The experiment is the same for the next values; noted with them: Table II; assay of Example 7.
On to `Cc1nnc2ccc(-n3cc4c(n3)CCN(CC(=O)N3CCN(C5CCC5)CC3)C4)nn12` [Compound 689, 6-{5-[2-(4-cyclobutylpiperazin-1-yl)-2-oxoethyl]-4,5,6,7-tetrahydro-2H-pyrazolo[4,3-c]pyridin-2-y1}-3-methyl[1,2,4]triazolo [4,3-b]pyridazine], for which the pKi was over 6.00.

The same experiment, now with this note: assay of Example 7; "*" in Ki of Table II.
For `CS(=O)(=O)c1cccc(-c2ccc3c(c2)CCN(CC(=O)N2CCN(C4CCCCC4)CC2)C3)c1` [Compound 395, 2-[2-(4-cyclohexylpiperazin-1-yl)-2-oxoethyl]-6-[3-(methylsulfonyl)phenyl]-1,2,3,4-tetrahydroisoquinoline], the negative-log Ki (pKi) is over 6.00. On the same count and under the same terms, the result for `Cn1cc2c(n1)CCN(CC(=O)N1CCN(C3CCC3)CC1)C2` [Compound 293, 5-[2-(4-cyclobutylpiperazin-1-yl)-2-oxoethyl]-2-methyl-4,5,6,7-tetrahydro-2H-pyrazolo[4,3-c]pyridine] reads over 6.00; that for `COc1ccc2cc(-c3nc4c(s3)CN(CC(=O)N3CCN(C5CCC5)CC3)CC4)ccc2c1` [Compound 324, 5-[2-(4-cyclobutylpiperazin-1-yl)-2-oxoethyl]-2-(6-methoxy-2-naphthyl)-4,5,6,7-tetrahydro[1,3]thiazolo [5,4-c]pyridine], over 6.00. Still for that read-out and setting: next, `O=C(CN1CCc2nc(-c3cccc(C(F)(F)F)c3)sc2C1)N1CCN(C2CCC2)CC1` [Compound 372, 5-[2-(4-cyclobutylpiperazin-1-yl)-2-oxoethyl]-2-[3-(trifluoromethyl)phenyl]-4,5,6,7-tetrahydro[1,3]thiazolo [5,4-c]pyridine]: over 6.00.

For the compound `Cc1ccc(F)c(-c2nc3c(s2)CN(CC(=O)N2CCN(C4CCC4)CC2)CC3)c1` [Compound 302, 5-[2-(4-cyclobutylpiperazin-1-yl)-2-oxoethyl]-2-(2-fluoro-5-methylphenyl)-4,5,6,7-tetrahydro[1,3]thiazolo [5,4-c]pyridine], the pKi was over 6.00.

Take `CC(=O)c1cccc(-c2nc3c(s2)CN(CC(=O)N2CCN(C4CCC4)CC2)CC3)c1` [Compound 370, 1-(3-{5-[2-(4-cyclobutylpiperazin-1-yl)-2-oxoethyl]-4,5,6,7-tetrahydro[1,3]thiazolo [5,4-c]pyridin-2-yl}phenyl)ethanone]: the pKi was over 6.00. Same read-out and setting: next, `O=C(CN1CCc2cc(-c3ccc4c(c3)OCO4)ccc2C1)N1CCN(C2CCCC2)CC1` [Compound 378, 6-(1,3-benzodioxol-5-yl)-2-[2-(4-cyclopentylpiperazin-1-yl)-2-oxoethyl]-1,2,3,4-tetrahydroisoquinoline]: over 6.00; `CCOc1cccc(-c2nc3c(s2)CN(CC(=O)N2CCN(C4CCC4)CC2)CC3)c1` [Compound 317, 5-[2-(4-cyclobutylpiperazin-1-yl)-2-oxoethyl]-2-(3-ethoxyphenyl)-4,5,6,7-tetrahydro[1,3]thiazolo [5,4-c]pyridine]: over 6.00.
